Measured values from the C3SDB collision cross section collection.

How the values were obtained:
[1] = instrument: DT, stepped-field
[2] = instrument: DT, single field, calibrated with Agilent tune mix (Agilent)
[3] = instrument: DT, stepped-field; remark: listed apart in the source

SMILES: CCCCCCCCCCCCC=CC[C@@H](O)[C@H](CO)NC(=O)CCCCCCCCCCCCCCCCCCC [Cer(38:01)]
- collision cross section (N2) ([1]; [M+H-H2O]+): 263.93 Å²

SMILES: CCCCCCCCCCCCC=CC[C@@H](O)[C@H](CO)NC(=O)CCCCCCCCCCCCCCCCCCCCC [Cer(40:01)]
- collision cross section (N2) ([1]; [M+H-H2O]+): 269.41 Å²

SMILES: CCCCCCCCCCCCC=CC[C@@H](O)[C@H](CO)NC(=O)CCCCCCCCCCCCCCCCCCCCCC [Cer(41:01)]
- collision cross section (N2) ([1]; [M+H-H2O]+): 272.16 Å²

SMILES: CCCCCCCCCCCCC=CC[C@@H](O)[C@H](CO)NC(=O)CCCCCCCCCCCCCCCCCCCCCCC [Cer(42:01)]
- collision cross section (N2) ([1]; [M+H-2H2O]+): 273.88 Å²
- collision cross section (N2) ([1]; [M+H-H2O]+): 275.06 Å²
- collision cross section (N2) ([1]; [M+H]+): 277.56 Å²

SMILES: CCCCCCCCCCCCC=CC[C@@H](O)[C@H](CO)NC(=O)CC=CCCCCCCCCCCCCCCCCCCCC [Cer(42:02)]
- collision cross section (N2) ([1]; [M+H-2H2O]+): 271.35 Å²
- collision cross section (N2) ([1]; [M+H-H2O]+): 273.26 Å²
- collision cross section (N2) ([1]; [M+H]+): 276.77 Å²

SMILES: CCCCCCCCCCCCC=CC[C@@H](O)[C@H](CO)NC(=O)CC=CCC=CCCCCCCCCCCCCCCCCC [Cer(42:03)]
- collision cross section (N2) ([1]; [M+H-H2O]+): 271.44 Å²
- collision cross section (N2) ([1]; [M+H]+): 275.18 Å²

SMILES: OC[C@H]1O[C@H](O[C@H]2[C@H](O)[C@@H](O)[C@H](O)O[C@@H]2CO)[C@H](O)[C@@H](O)[C@@H]1O [D-Maltose]
- collision cross section (N2) ([2]; [M+K-2H]-): 175.19 Å²
- collision cross section (N2) ([2]; [M+Na]+): 178.1 Å²
- collision cross section (N2) ([3]; [M+Na]+): 179.19 Å²

SMILES: OC[C@H]1OC(O)[C@@H](O)[C@@H](O)[C@@H]1O (stereo partly drawn) [D-Mannose]
- collision cross section (N2) ([2]; [M+Na]+): 140.8 Å²
- collision cross section (N2) ([3]; [M+Na]+): 141.82 Å²

SMILES: NCCc1ccc(O)c(O)c1 [Dopamine]
- collision cross section (N2) ([2]; [M-H]-): 129.51 Å²
- collision cross section (N2) ([3]; [M+H]+): 125.24 Å²

SMILES: CCCCCCCCCCCCCCCC(=O)N[C@@H](CO[C@@H]1O[C@H](CO)[C@@H](O)C(O)C1O)[C@H](O)CCCCCCCCCCCCCCC (some centres undefined) [GlcCer(34:00)]
- collision cross section (N2) ([1]; [M+Na]+): 280.92 Å²

SMILES: CCCCCCCCCCCCC=CC[C@@H](O)[C@H](CO[C@@H]1O[C@H](CO)[C@@H](O)C(O)C1O)NC(=O)CCCCCCCCCCCCCCCCC (some centres undefined) [GlcCer(36:01)]
- collision cross section (N2) ([1]; [M+Cl]-): 284.18 Å²
- collision cross section (N2) ([1]; [M+H-H2O]+): 279.86 Å²
- collision cross section (N2) ([1]; [M+HCOO]-): 287.29 Å²
- collision cross section (N2) ([1]; [M+H]+): 282.43 Å²
- collision cross section (N2) ([1]; [M+Na]+): 284 Å²

SMILES: CCCCCCCCCCCCC=CC[C@@H](O)[C@H](CO[C@@H]1O[C@H](CO)[C@@H](O)C(O)C1O)NC(=O)CCCCCCCCCCCCCCCCCC (some centres undefined) [GlcCer(37:01)]
- collision cross section (N2) ([1]; [M+Na]+): 287.43 Å²

SMILES: CCCCCCCCCCCCCCCCCCCC(=O)N[C@@H](CO[C@@H]1O[C@H](CO)[C@@H](O)C(O)C1O)[C@H](O)CCCCCCCCCCCCCCC (some centres undefined) [GlcCer(38:00)]
- collision cross section (N2) ([1]; [M+H]+): 290.18 Å²
- collision cross section (N2) ([1]; [M+Na]+): 291.27 Å²

SMILES: CCCCCCCCCCCCC=CC[C@@H](O)[C@H](CO[C@@H]1O[C@H](CO)[C@@H](O)C(O)C1O)NC(=O)CCCCCCCCCCCCCCCCCCC (some centres undefined) [GlcCer(38:01)]
- collision cross section (N2) ([1]; [M+H-H2O]+): 286.62 Å²
- collision cross section (N2) ([1]; [M+H]+): 288.15 Å²
- collision cross section (N2) ([1]; [M+Na]+): 290.52 Å²

SMILES: CCCCCCCCCCCCC=CC[C@@H](O)[C@H](CO[C@@H]1O[C@H](CO)[C@@H](O)C(O)C1O)NC(=O)CCCCCCCCCCCCCCCCCCCCC (some centres undefined) [GlcCer(40:01)]
- collision cross section (N2) ([1]; [M+Cl]-): 292.56 Å²
- collision cross section (N2) ([1]; [M+H-H2O]+): 292.77 Å²
- collision cross section (N2) ([1]; [M+HCOO]-): 298.16 Å²
- collision cross section (N2) ([1]; [M+H]+): 293.87 Å²
- collision cross section (N2) ([1]; [M+Na]+): 296.15 Å²

SMILES: CCCCCCCCCCCCC=CC[C@@H](O)[C@H](CO[C@@H]1O[C@H](CO)[C@@H](O)C(O)C1O)NC(=O)CC=CCCCCCCCCCCCCCCCCCC (some centres undefined) [GlcCer(40:02)]
- collision cross section (N2) ([1]; [M+H-H2O]+): 290.36 Å²
- collision cross section (N2) ([1]; [M+H]+): 293.98 Å²
- collision cross section (N2) ([1]; [M+Na]+): 292.09 Å²

SMILES: CCCCCCCCCCCCC=CC[C@@H](O)[C@H](CO[C@@H]1O[C@H](CO)[C@@H](O)C(O)C1O)NC(=O)CCCCCCCCCCCCCCCCCCCCCC (some centres undefined) [GlcCer(41:01)]
- collision cross section (N2) ([1]; [M+H-H2O]+): 294.63 Å²
- collision cross section (N2) ([1]; [M+H]+): 297.12 Å²
- collision cross section (N2) ([1]; [M+Na]+): 297.42 Å²

SMILES: CCCCCCCCCCCCC=CC[C@@H](O)[C@H](CO[C@@H]1O[C@H](CO)[C@@H](O)C(O)C1O)NC(=O)CCCCCCCCCCCCCCCCCCCCCCC (some centres undefined) [GlcCer(42:01)]
- collision cross section (N2) ([1]; [M+Cl]-): 298.88 Å²
- collision cross section (N2) ([1]; [M+H-H2O]+): 298.36 Å²
- collision cross section (N2) ([1]; [M+HCOO]-): 302.85 Å²
- collision cross section (N2) ([1]; [M+H]+): 300.59 Å²
- collision cross section (N2) ([1]; [M+Na]+): 301.76 Å²

SMILES: CCCCCCCCCCCCC=CC[C@@H](O)[C@H](CO[C@@H]1O[C@H](CO)[C@@H](O)C(O)C1O)NC(=O)CC=CCCCCCCCCCCCCCCCCCCCCC (some centres undefined) [GlcCer(43:02)]
- collision cross section (N2) ([1]; [M+H]+): 302.04 Å²
- collision cross section (N2) ([1]; [M+Na]+): 302.4 Å²

SMILES: CCCCCCCCCCCCC=CC[C@@H](O)[C@H](CO[C@@H]1O[C@H](CO)[C@@H](O)C(O)C1O)NC(=O)CCCCCCCCCCCCCCCCCCCCCCCCC (some centres undefined) [GlcCer(44:01)]
- collision cross section (N2) ([1]; [M+H]+): 306.44 Å²
- collision cross section (N2) ([1]; [M+Na]+): 307.93 Å²

SMILES: OC[C@H]1O[C@H](OC[C@H]2OC(O)[C@H](O)[C@@H](O)[C@@H]2O)[C@H](O)[C@@H](O)[C@H]1O (some centres undefined) [Melibiose]
- collision cross section (N2) ([2]; [M+Na]+): 176.8 Å²
- collision cross section (N2) ([3]; [M+Na]+): 181.14 Å²

SMILES: CC(=O)N[C@H]1C(O)O[C@H](CO)[C@@H](O)[C@@H]1O (stereo partly drawn) [N-Acetyl-D-glucosamine]
- collision cross section (N2) ([2]; [M+H]+): 147.3 Å²
- collision cross section (N2) ([3]; [M+Na]+): 160.36 Å²

SMILES: CC(=O)N[C@@H](CCC(=O)O)C(=O)O [N-Acetyl-L-glutamate]
- collision cross section (N2) ([2]; [M+Na-2H]-): 141 Å²
- collision cross section (N2) ([3]; [M+H]+): 139.03 Å²
- collision cross section (N2) ([3]; [M+Na]+): 149.63 Å²

SMILES: NC(=O)c1cccnc1 [Nicotinamide]
- collision cross section (N2) ([2]; [M+H]+): 125.3 Å²
- collision cross section (N2) ([3]; [M+H]+): 129.32 Å²
- collision cross section (N2) ([3]; [M+Na]+): 137.3 Å²

SMILES: CN(CC(=O)O)/C(N)=N/P(=O)(O)O [Phosphocreatine]
- collision cross section (N2) ([2]; [M+H]+): 144.4 Å²
- collision cross section (N2) ([3]; [M+H]+): 153.77 Å²

SMILES: CC(=O)[C@H]1CC[C@H]2[C@@H]3CCC4=CC(=O)CC[C@]4(C)[C@H]3CC[C@]12C [Progesterone]
- collision cross section (N2) ([2]; [M+H]+): 181.2 Å²
- collision cross section (N2) ([2]; [M-H]-): 182.13 Å²
- collision cross section (N2) ([3]; [M+H]+): 186.73 Å²
- collision cross section (N2) ([3]; [M+Na]+): 169.03 Å²

SMILES: CCCCC[C@H](O)/C=C/[C@@H]1[C@H]2C/C(=C/CCCC(=O)O)O[C@H]2C[C@H]1O [Prostaglandin I2]
- collision cross section (N2) ([2]; [M+H]+): 198.6 Å²
- collision cross section (N2) ([2]; [M-H]-): 186.84 Å²
- collision cross section (N2) ([3]; [M+H]+): 201.3 Å²
- collision cross section (N2) ([3]; [M+Na]+): 196.67 Å²

SMILES: Cn1cnc2c1c(=O)[nH]c(=O)n2C [Theobromine]
- collision cross section (N2) ([2]; [M-H]-): 135.25 Å²
- collision cross section (N2) ([3]; [M+H]+): 134.37 Å²

SMILES: Cn1c(=O)c2[nH]cnc2n(C)c1=O [Theophylline]
- collision cross section (N2) ([2]; [M+H]+): 137.6 Å²
- collision cross section (N2) ([2]; [M-H]-): 130.14 Å²
- collision cross section (N2) ([3]; [M+H]+): 143.06 Å²
- collision cross section (N2) ([3]; [M+Na]+): 149.63 Å²

SMILES: OC[C@@H](O)C(O)[C@@H](O)CO (some centres undefined) [Xylitol]
- collision cross section (N2) ([2]; [M+Na]+): 135.3 Å²
- collision cross section (N2) ([2]; [M-H]-): 122.4 Å²
- collision cross section (N2) ([3]; [M+Na]+): 140.79 Å²
